Patent publication US12522623B2, “Small molecule STAT protein degraders” (THE REGENTS OF THE UNIVERSITY OF MICHIGAN, priority 2020, dated 2026)

Key:
[1] = target: T1, STAT3 (Homo sapiens, UniProt P40763); test: Fluorescent immunoblotting of STAT3 protein in MOLM-16 cells (estimated DC50); assay type: cell-based; conditions: MOLM-16, 4 h
T1 construct: endogenous in cells; host or cells: MOLM-16 (acute leukemia cells)
Procedure: In vitro cultured cells or xenograft tumors were lysed 1×Cell Lysis Buffer (Cell Signaling Technology, #9803), resolved by SDS-PAGE NuPAGE gel (Thermo Fisher Scientific), and transferred to a PVDF membrane (Bio Rad). For chemiluminescence immunoblotting, membranes were blocked for 1 h using 5% Blotting-Grade Blocker (#1706404, Bio Rad) in 1×Tris-buffered saline with Tween 20 (TBST, Pierce). Antibodies used were: rabbit mAbs for STAT3 (Cell Signaling Technology, #4368, #12640) and p-STAT3 (Y705) (Cell Signaling Technology, #9245, #52075). HRP conjugated goat anti-rabbit IgG (H+L) (#A27036) secondary antibodies was from Thermo Fisher Scientific. GAPDH (Santa Cruz Technology, sc-47724HRP) and actin (Santa Cruz Technology, sc-8432HRP, sc-47778HRP) were loading controls. For fluorescent immunoblotting, membranes were blocked using Odyssey TBS Blocker Buffer (LI-COR). IRDye 680RD and 800CW Dye-labeled secondary antibodies (LI-COR) were used. The washed membranes were scanned using Odyssey CLx imager (LI-COR). The intensity of Western blot signaling was quantitated using the Odyssey software or Image Studio V5.2 (LI-COR).

[2] = tested on: MOLM-16 cells; test: Cell growth inhibition, 4-day proliferation assay (CellTiter-Glo); assay type: cell-based; conditions: MOLM16, 96 h; MOLM-16, 4 days
Procedure: The effect of representative Compounds of the Disclosure on cell viability was determined in a 4-day proliferation assay. Cells were maintained in the appropriate culture medium at 37° C. and an atmosphere of 5% CO2. All the cell lines were used within three months of thawing fresh vials. Cells were seeded in 384-well white plates (Corning Costar) at a density of 2,000 cells/well in 25 μl of culture medium. Compounds were serially diluted in the appropriate medium, and 25 μl of the diluted compounds were added to the cells. After the addition of compounds, the cells were incubated at 37° C. in an atmosphere of 5% CO2 for 4 days. Cell viability was determined using the CellTiter-Glo® Luminescent Cell Viability Assay Kit (Promega, Madison, WI) according to the manufacturers' instructions. Essentially, 50 μl of CellTiter-Glo® Reagent was added to each well, and then the plates were incubated at room temperature for 20 minutes. The luminescent signal was measured using a Tecan multimode microplate reader (Tecan, Morrisville, NC). The readings were normalized to the DMSO-treated cells and the IC50 was calculated by nonlinear regression (four parameters sigmoid fitted with variable slope, least squares fit, and no constraint) analysis using the GraphPad Prism software.

T1 sequence (P40763 whole entry): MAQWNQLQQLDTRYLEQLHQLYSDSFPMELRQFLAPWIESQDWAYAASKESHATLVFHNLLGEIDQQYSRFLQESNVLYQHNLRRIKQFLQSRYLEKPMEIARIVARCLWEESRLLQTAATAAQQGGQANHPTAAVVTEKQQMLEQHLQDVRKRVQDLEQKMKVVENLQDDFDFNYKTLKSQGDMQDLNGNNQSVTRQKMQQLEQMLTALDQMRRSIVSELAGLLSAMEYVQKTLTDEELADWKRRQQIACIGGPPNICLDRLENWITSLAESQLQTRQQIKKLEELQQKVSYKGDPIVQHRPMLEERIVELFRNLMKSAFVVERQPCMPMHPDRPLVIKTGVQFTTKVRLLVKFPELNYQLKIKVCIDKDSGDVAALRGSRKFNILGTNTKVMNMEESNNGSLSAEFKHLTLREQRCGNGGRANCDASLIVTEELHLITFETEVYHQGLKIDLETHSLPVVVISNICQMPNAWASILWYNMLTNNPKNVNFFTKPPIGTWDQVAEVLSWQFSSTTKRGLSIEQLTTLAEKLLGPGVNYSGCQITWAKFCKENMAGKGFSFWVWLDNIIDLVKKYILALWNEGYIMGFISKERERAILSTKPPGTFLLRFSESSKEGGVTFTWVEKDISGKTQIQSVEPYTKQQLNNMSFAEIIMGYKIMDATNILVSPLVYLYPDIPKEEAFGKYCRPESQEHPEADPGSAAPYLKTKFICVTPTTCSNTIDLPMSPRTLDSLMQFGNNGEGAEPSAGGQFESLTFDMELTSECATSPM

Q: With `NC(=O)CC[C@H](NC(=O)[C@@H]1CC[C@@H]2CCN(C(=O)CCCCCC#Cc3cccc4c3CN(C3CCC(=O)NC3=O)C4=O)C[C@H](NC(=O)c3cc4cc(C(F)(F)P(=O)(O)O)ccc4s3)C(=O)N21)c1nc(-c2ccc(F)cc2)cs1` (stereo partly drawn) [Cpd. No. 12, ((2-(((5S,8S,10aR)-8-(((S)-4-amino-1-(4-(4-fluorophenyl)thiazol-2-yl)-4-oxobutyl)carbamoyl)-3-(8-(2-(2,6-dioxopiperidin-3-yl)-1-oxoisoindolin-4-yl)oct-7-ynoyl)-6-oxodecahydropyrrolo[1,2-a][1,5]diazocin-5-yl)carbamoyl)benzo[b]thiophen-5-yl)difluoromethyl)phosphonic acid] as the compound, how does the DC50 [1] read?
A: The DC50 was 0.1 µM.

Q: For `NC(=O)CC[C@H](NC(=O)[C@@H]1CC[C@@H]2CCN(C(=O)CCCCCC#Cc3cccc4c3CN(C3CCC(=O)NC3=O)C4=O)C[C@H](NC(=O)c3cc4cc(C(F)(F)P(=O)(O)O)ccc4s3)C(=O)N21)c1ncc(-c2ccccc2F)s1` (stereo partly drawn) [Cpd. No. 16, ((2-(((5S,8S,10aR)-8-(((S)-4-amino-1-(5-(2-fluorophenyl)thiazol-2-yl)-4-oxobutyl)carbamoyl)-3-(8-(2-(2,6-dioxopiperidin-3-yl)-1-oxoisoindolin-4-yl)oct-7-ynoyl)-6-oxodecahydropyrrolo[1,2-a][1,5]diazocin-5-yl)carbamoyl)benzo[b]thiophen-5-yl)difluoromethyl)phosphonic acid], which IC50 [2] is on record?
A: The IC50 was 0.068 µM.

Q: And the DC50 [1]?
A: The DC50 was 0.05 µM.

Q: `NC(=O)CC[C@H](NC(=O)[C@@H]1CC[C@@H]2CCN(C(=O)CCCCCC#Cc3cccc4c3CN(C3CCC(=O)NC3=O)C4=O)C[C@H](NC(=O)c3cc4cc(C(F)(F)P(=O)(O)O)ccc4s3)C(=O)N21)c1nc(-c2ccc(F)c(Cl)c2)cs1` (stereo partly drawn) [Cpd. No. 14, ((2-(((5S,8S,10aR)-8-(((S)-4-amino-1-(4-(3-chloro-4-fluorophenyl)thiazol-2-yl)-4-oxobutyl)carbamoyl)-3-(8-(2-(2,6-dioxopiperidin-3-yl)-1-oxoisoindolin-4-yl)oct-7-ynoyl)-6-oxodecahydropyrrolo[1,2-a][1,5]diazocin-5-yl)carbamoyl)benzo[b]thiophen-5-yl)difluoromethyl)phosphonic acid] was tested. Which IC50 [2] did it give?
A: The IC50 was 0.037 µM.

Q: What about the DC50 [1] of the same compound?
A: Its DC50 is 0.05 µM.

Q: Which DC50 [1] does the source give for `CC(C)(C)c1cnc([C@H](CCC(N)=O)NC(=O)[C@@H]2CC[C@@H]3CCN(C(=O)CCCCCC#Cc4cccc5c4CN(C4CCC(=O)NC4=O)C5=O)C[C@H](NC(=O)c4cc5cc(C(F)(F)P(=O)(O)O)ccc5s4)C(=O)N32)s1` (stereo partly drawn) [Cpd. No. 15, ((2-(((5S,8S,10aR)-8-(((S)-4-amino-1-(5-(tert-butyl)thiazol-2-yl)-4-oxobutyl)carbamoyl)-3-(8-(2-(2,6-dioxopiperidin-3-yl)-1-oxoisoindolin-4-yl)oct-7-ynoyl)-6-oxodecahydropyrrolo[1,2-a][1,5]diazocin-5-yl)carbamoyl)benzo[b]thiophen-5-yl)difluoromethyl)phosphonic acid] here?
A: Its DC50 is 0.5 µM.

Q: With `NC(=O)CC[C@H](NC(=O)[C@@H]1CC[C@@H]2CCN(C(=O)CCCCCC#Cc3cccc4c3CN(C3CCC(=O)NC3=O)C4=O)C[C@H](NC(=O)c3cc4cc(C(F)(F)P(=O)(O)O)ccc4s3)C(=O)N21)c1nc(-c2ccc(Cl)cc2)cs1` (stereo partly drawn) [Cpd. No. 13, ((2-(((5S,8S,10aR)-8-(((S)-4-amino-1-(4-(4-chlorophenyl)thiazol-2-yl)-4-oxobutyl)carbamoyl)-3-(8-(2-(2,6-dioxopiperidin-3-yl)-1-oxoisoindolin-4-yl)oct-7-ynoyl)-6-oxodecahydropyrrolo[1,2-a][1,5]diazocin-5-yl)carbamoyl)benzo[b]thiophen-5-yl)difluoromethyl)phosphonic acid] as the compound, how does the DC50 [1] read?
A: Its DC50 is 0.1 µM.

Q: For `CC(C)(C)c1ccc(-c2cnc([C@H](CCC(N)=O)NC(=O)[C@@H]3CC[C@@H]4CCN(C(=O)CCCCCC#Cc5cccc6c5CN(C5CCC(=O)NC5=O)C6=O)C[C@H](NC(=O)c5cc6cc(C(F)(F)P(=O)(O)O)ccc6s5)C(=O)N43)s2)cc1` (stereo partly drawn) [Cpd. No. 17, ((2-(((5S,8S,10aR)-8-(((S)-4-amino-1-(5-(4-(tert-butyl)phenyl)thiazol-2-yl)-4-oxobutyl)carbamoyl)-3-(8-(2-(2,6-dioxopiperidin-3-yl)-1-oxoisoindolin-4-yl)oct-7-ynoyl)-6-oxodecahydropyrrolo[1,2-a][1,5]diazocin-5-yl)carbamoyl)benzo[b]thiophen-5-yl)difluoromethyl)phosphonic acid], which DC50 [1] is on record?
A: Its DC50 is 0.2 µM.

Q: How did the IC50 [2] turn out when `NC(=O)CC[C@H](NC(=O)[C@@H]1CC[C@@H]2CCN(C(=O)CCCCCC#Cc3cccc4c3CN(C3CCC(=O)NC3=O)C4=O)C[C@H](NC(=O)c3cc4cc(C(F)(F)P(=O)(O)O)ccc4s3)C(=O)N21)c1nc(Cc2ccccc2)cs1` (stereo partly drawn) [Cpd. No. 3, ((2-(((5S,8S,10aR)-8-(((S)-4-amino-1-(4-benzylthiazol-2-yl)-4-oxobutyl)carbamoyl)-3-(8-(2-(2,6-dioxopiperidin-3-yl)-1-oxoisoindolin-4-yl)oct-7-ynoyl)-6-oxodecahydropyrrolo[1,2-a][1,5]diazocin-5-yl)carbamoyl)benzo[b]thiophen-5-yl)difluoromethyl)phosphonic acid] was run?
A: The IC50 was 0.17 µM.

Q: And the DC50 [1]?
A: Its DC50 is 0.1 µM.

Q: With `NC(=O)OC[C@H](NC(=O)[C@@H]1CC[C@@H]2CCN(C(=O)CCCCCC#Cc3cccc4c3CN(C3CCC(=O)NC3=O)C4=O)C[C@H](NC(=O)c3cc4cc(C(F)(F)P(=O)(O)O)ccc4s3)C(=O)N21)c1ncc(-c2ccccc2)s1` (stereo partly drawn) [Cpd. No. 8, ((2-(((5S,8S,10aR)-8-(((S)-2-(carbamoyloxy)-1-(5-phenylthiazol-2-yl)ethyl)carbamoyl)-3-(8-(2-(2,6-dioxopiperidin-3-yl)-1-oxoisoindolin-4-yl)oct-7-ynoyl)-6-oxodecahydropyrrolo[1,2-a][1,5]diazocin-5-yl)carbamoyl)benzo[b]thiophen-5-yl)difluoromethyl)phosphonic acid] as the compound, how does the IC50 [2] read?
A: The IC50 was 0.013 µM.

Q: And the DC50 [1]?
A: Its DC50 is 0.1 µM.

Q: For `NC(=O)CC[C@H](NC(=O)[C@@H]1CC[C@@H]2CCN(C(=O)CCCCCC#Cc3cccc4c3CN(C3CCC(=O)NC3=O)C4=O)C[C@H](NC(=O)c3cc4cc(C(F)(F)P(=O)(O)O)ccc4s3)C(=O)N21)c1ncc(-c2ccc(Cl)cc2)s1` (stereo partly drawn) [Cpd. No. 7, ((2-(((5S,8S,10aR)-8-(((S)-4-amino-1-(5-(4-chlorophenyl)thiazol-2-yl)-4-oxobutyl)carbamoyl)-3-(8-(2-(2,6-dioxopiperidin-3-yl)-1-oxoisoindolin-4-yl)oct-7-ynoyl)-6-oxodecahydropyrrolo[1,2-a][1,5]diazocin-5-yl)carbamoyl)benzo[b]thiophen-5-yl)difluoromethyl)phosphonic acid], which DC50 [1] is on record?
A: The DC50 was 0.05 µM.

Q: `NC(=O)CC[C@H](NC(=O)[C@@H]1CC[C@@H]2CCN(C(=O)CCCCCC#Cc3cccc4c3CN(C3CCC(=O)NC3=O)C4=O)C[C@H](NC(=O)c3cc4cc(C(F)(F)P(=O)(O)O)ccc4s3)C(=O)N21)c1nc(-c2ccc(F)c(F)c2)cs1` (stereo partly drawn) [Cpd. No. 11, ((2-(((5S,8S,10aR)-8-(((S)-4-amino-1-(4-(3,4-difluorophenyl)thiazol-2-yl)-4-oxobutyl)carbamoyl)-3-(8-(2-(2,6-dioxopiperidin-3-yl)-1-oxoisoindolin-4-yl)oct-7-ynoyl)-6-oxodecahydropyrrolo[1,2-a][1,5]diazocin-5-yl)carbamoyl)benzo[b]thiophen-5-yl)difluoromethyl)phosphonic acid] was tested. Which DC50 [1] did it give?
A: The DC50 was 0.1 µM.
